# From patent US20110236504A1, “VERSATILE DISINFECTANT” (priority 2008, published 2011)
# Like-named read-outs stand apart in the source and are kept apart here.
# Key:
# S. aureus 209P = experiment: Metal ion or food preservative added to growth medium, viable count; format: cell-based
# Method: (§1) To a standard medium for counting viable bacteria described below, each metal ion with varied concentration was added. […] Then, the number of viable bacteria was counted with time in a common procedure.
# (§2) Sample bacteria: S. aureus 209P as a representative of Gram-positive bacteria • E. coli 0-157 as a representative of Gram-negative bacteria
# (§3) Standard medium for counting viable bacteria: yeast extract 2.5 g, peptone 5 g, glucose 1 g, agar 15 g, pH 7.2
# E. coli O-157 [1] = experiment: as above; format: cell-based; conditions: food preservative in growth medium
# [2] = test system: sample bacteria (S. aureus 209P, E. coli O-157); experiment: Death rate over time, food preservative in purified water pH 3.0
# E. coli O-157 [3] = experiment: Metal ion or food preservative added to growth medium, viable count; format: cell-based; conditions: metal ion in growth medium
# Method: as §1, §2, §3
# [4] = test system: viable bacteria in sputum; experiment: Sterilization effect on specimen: sputum; conditions: Sputum 2 × 10^9/g
# [5] = test system: intestinal bacteria in feces; experiment: Sterilization effect on specimen: feces; conditions: Feces 1.5 × 10^11/g
# [6] = test system: pus mainly including antibiotic resistant MRSA; conditions: Pus (MRSA) 4 × 10^9/g
# [7] = test system: pus mainly including antibiotic resistant Pseudomonas aeruginosa (MDRP); conditions: Pus (MDRP) 5 × 10^9/g
# [8] = test system: spores of Bacillus species; experiment: Spore decay time and decay rate in dried soil, aerobic culture; format: cell-based; conditions: for Spore decay rate, Spores of Bacillus species: 1 g dried soil in 10 ml, aerobic culture
# Method: (§4) Sands in a sandbox in a park and riverside soil were collected and mixed. The mixture was dried with heated air at 80 to 90° C. for 6 hours. Then, 1 g of the dried mixture was added into water and immediately filtered with a filter. A part of the filtrate was applied onto a glass slide, and spores were stained in a common procedure. The number of stained spores was counted and the number of spores contained in 1 g of soil was determined. Simultaneously, the spores were aerobically (Bacillus species proliferated) and anaerobically (Clostridium species proliferated) cultured, and each ratio was determined.
# (§5) Then, into 10 ml of the sample disinfectant, 1 g of the dried soil was added. Some of the mixture was collected with time, and cultured aerobically and anaerobically. The number of growing colonies was counted to determine the decay rate of the spores.
# [9] = test system: spores of Clostridium species; experiment: Spore decay time and decay rate in dried soil, anaerobic culture; format: cell-based; conditions: for Spore decay rate, Spores of Clostridium species: 1 g dried soil in 10 ml, anaerobic culture
# Method: as §4, §5
# [10] = food preservative in growth medium
smiles,measurement,setting,value
C/C=C/C=C/C(=O)[O-].[K+] [Potassium sorbate],"(a) Antiproliferative activity, concentration",S. aureus 209P; [10],35~250 ppm
same,"(b) Bacteriostatic activity, concentration",S. aureus 209P; [10],200 ppm>
same,"(a) Antiproliferative activity, concentration",E. coli O-157 [1],30~250 ppm
same,"(b) Bacteriostatic activity, concentration",E. coli O-157 [1],250 ppm>
same,Death rate,"[2]; 50 ppm, 5 min",0
same,Death rate,"[2]; 50 ppm, 10 min",0
same,Death rate,"[2]; 50 ppm, 15 min",0
same,Death rate,"[2]; 50 ppm, 30 min",2
same,Death rate,"[2]; 50 ppm, 60 min",5
same,Death rate,"[2]; 50 ppm, 90 min",8
same,Death rate,"[2]; 50 ppm, 120 min",12
same,Death rate,"[2]; 200 ppm, 5 min",0
same,Death rate,"[2]; 200 ppm, 10 min",0
same,Death rate,"[2]; 200 ppm, 15 min",0
same,Death rate,"[2]; 200 ppm, 30 min",2
same,Death rate,"[2]; 200 ppm, 60 min",6
same,Death rate,"[2]; 200 ppm, 90 min",10
same,Death rate,"[2]; 200 ppm, 120 min",15
same,Death rate,"[2]; 500 ppm, 5 min",0
same,Death rate,"[2]; 500 ppm, 10 min",0
same,Death rate,"[2]; 500 ppm, 15 min",1
same,Death rate,"[2]; 500 ppm, 30 min",3
same,Death rate,"[2]; 500 ppm, 60 min",7
same,Death rate,"[2]; 500 ppm, 90 min",12
same,Death rate,"[2]; 500 ppm, 120 min",18
"O.O.O.O.O.O.O.O=S(=O)([O-])[O-].[Zn+2] [Zn^2+, ZnSO4•7H2O]","(a) Antiproliferative activity, concentration",E. coli O-157 [3],10~15 ppm
same,"(b) Bacteriostatic activity, concentration",E. coli O-157 [3],15~250 ppm
same,"(c) Bactericidal activity, concentration",E. coli O-157 [3],250 ppm>
same,"Acceleration of growth, concentration",E. coli O-157 [3],10 ppm<
same,"(a) Antiproliferative activity, concentration",S. aureus 209P; metal ion in growth medium,12~18 ppm
same,"(b) Bacteriostatic activity, concentration",S. aureus 209P; metal ion in growth medium,16~200 ppm
same,"(c) Bactericidal activity, concentration",S. aureus 209P; metal ion in growth medium,200 ppm>
same,"Acceleration of growth, concentration",S. aureus 209P; metal ion in growth medium,10 ppm<
C/C=C/C=C/C(=O)O [Sorbic acid],"(a) Antiproliferative activity, concentration",S. aureus 209P; [10],20~200 ppm
same,"(b) Bacteriostatic activity, concentration",S. aureus 209P; [10],150 ppm>
same,"(a) Antiproliferative activity, concentration",E. coli O-157 [1],20~200 ppm
same,"(b) Bacteriostatic activity, concentration",E. coli O-157 [1],200 ppm>
same,Death rate,"[2]; 50 ppm, 5 min",0
same,Death rate,"[2]; 50 ppm, 10 min",0
same,Death rate,"[2]; 50 ppm, 15 min",0
same,Death rate,"[2]; 50 ppm, 30 min",2
same,Death rate,"[2]; 50 ppm, 60 min",5
same,Death rate,"[2]; 50 ppm, 90 min",10
same,Death rate,"[2]; 50 ppm, 120 min",15
same,Death rate,"[2]; 200 ppm, 5 min",0
same,Death rate,"[2]; 200 ppm, 10 min",0
same,Death rate,"[2]; 200 ppm, 15 min",0
same,Death rate,"[2]; 200 ppm, 30 min",2
same,Death rate,"[2]; 200 ppm, 60 min",7
same,Death rate,"[2]; 200 ppm, 90 min",12
same,Death rate,"[2]; 200 ppm, 120 min",18
same,Death rate,"[2]; 500 ppm, 5 min",0
same,Death rate,"[2]; 500 ppm, 10 min",0
same,Death rate,"[2]; 500 ppm, 15 min",1
same,Death rate,"[2]; 500 ppm, 30 min",3
same,Death rate,"[2]; 500 ppm, 60 min",10
same,Death rate,"[2]; 500 ppm, 90 min",15
same,Death rate,"[2]; 500 ppm, 120 min",20
"OCl [Sodium hypochlorite, sodium hypochlorite]",The number of viable bacteria in specimen,[4]; 5 min after addition,20000 g⁻¹
same,The number of viable bacteria in specimen,[4]; 15 min after addition,10000 g⁻¹
same,The number of viable bacteria in specimen,[4]; 30 min after addition,10000 g⁻¹
same,The number of viable bacteria in specimen,[4]; 60 min after addition,5000 g⁻¹
same,The number of viable bacteria in specimen,"[4]; 60 min after addition, listed as sodium hypochlorite",5000 g⁻¹
same,The number of viable bacteria in specimen,[5]; 5 min after addition,1e+08 g⁻¹
same,The number of viable bacteria in specimen,[5]; 15 min after addition,8e+06 g⁻¹
same,The number of viable bacteria in specimen,[5]; 30 min after addition,8e+06 g⁻¹
same,The number of viable bacteria in specimen,[5]; 60 min after addition,1e+07 g⁻¹
same,The number of viable bacteria in specimen,"[5]; 60 min after addition, listed as hypochlorite",1e+07 g⁻¹
same,The number of viable bacteria in specimen,[6]; 5 min after addition,30000 g⁻¹
same,The number of viable bacteria in specimen,[6]; 15 min after addition,500 g⁻¹
same,The number of viable bacteria in specimen,[6]; 30 min after addition,100 g⁻¹
same,The number of viable bacteria in specimen,[6]; 60 min after addition,0 g⁻¹
same,The number of viable bacteria in specimen,[7]; 5 min after addition,2000 g⁻¹
same,The number of viable bacteria in specimen,[7]; 15 min after addition,1000 g⁻¹
same,The number of viable bacteria in specimen,[7]; 30 min after addition,200 g⁻¹
same,The number of viable bacteria in specimen,[7]; 60 min after addition,100 g⁻¹
same,"Spore decay rate, Spores of Bacillus species",[8]; 1 min contact,0%
same,"Spore decay rate, Spores of Bacillus species",[8]; 5 min contact,0%
same,"Spore decay rate, Spores of Bacillus species",[8]; 10 min contact,10%
same,"Spore decay rate, Spores of Bacillus species",[8]; 30 min contact,30%
same,"Spore decay rate, Spores of Bacillus species",[8]; 60 min contact,100%
same,spores decayed,[8]; 60 minutes contact,100%
same,"Spore decay rate, Spores of Bacillus species",[8]; 120 min contact,100%
same,"Spore decay rate, Spores of Clostridium species",[9]; 1 min contact,0%
same,"Spore decay rate, Spores of Clostridium species",[9]; 5 min contact,5%
same,"Spore decay rate, Spores of Clostridium species",[9]; 10 min contact,20%
same,"Spore decay rate, Spores of Clostridium species",[9]; 30 min contact,30%
same,"Spore decay rate, Spores of Clostridium species",[9]; 60 min contact,100%
same,spores decayed,[9]; 60 minutes contact,100%
same,"Spore decay rate, Spores of Clostridium species",[9]; 120 min contact,100%
"O=[N+]([O-])[O-].[Ag+] [Ag^+, AgNO3]","(a) Antiproliferative activity, concentration",E. coli O-157 [3],0.05~2 ppm
same,"(b) Bacteriostatic activity, concentration",E. coli O-157 [3],2~4 ppm
same,"(c) Bactericidal activity, concentration",E. coli O-157 [3],4 ppm>
